Our source for the inhibition and IC50 values is article PMC4409337, “Immucillins Impair Leishmania (L.) infantum chagasi and Leishmania (L.) amazonensis Multiplication In Vitro” (PLoS ONE, 2015).

This assay concerns L. (L.) amazonensis promastigotes. Kind of assay: In vitro growth of promastigotes in FBS supplemented Schneider's insect medium. Format: cell-based, Leishmania (L.) amazonensis. The settings on record: Leishmania amazonensis. The source says:
The strain of Leishmania (L.) infantum chagasi MHOM/BR/1974/PP75 was obtained from the Leishmania Type Culture Collection (Fundacão Oswaldo Cruz, Rio de Janeiro, RJ, Brazil) and the strain of Leishmania (L.) amazonensis (MHOM/BR/1975/Josefa) was kindly given by Professor Rosâ[…] from Universidade Federal do Rio de Janeiro. Promastigotes were maintained by weekly transfers in screw-capped glass tubes containing Schneider's insect medium (Sigma Aldrich, MO, USA), pH 7.0, supplemented with 10% Fetal Bovine Serum (FBS) at 26°C. Stock solutions (20 mM) of immucillins IA […] prepared using Milli-Q purified water. Log phase promastigotes of L. (L.) infantum chagasi and L. […] Promastigotes were recorded in a Neubauer chamber after 24, 48, 72 and 96 hours of incubation at 26°C. […] We also assayed the possibility of reversing the inhibitory effect of IA in RPMI medium by the addition of adenosine to the culture medium. The concentration of adenosine in Schneider s insect serum supplemented medium was assessed by HPLC using a C-18 reverse-phase column as described.

Turning to `Nc1ncnc2c(C3N[C@H](CO)[C@@H](O)[C@H]3O)c[nH]c12` (some centres unmarked) [IA], the inhibition (commonly how much of the control response was suppressed) at 500 µM (500 μM, after 96 h of culture, read-out: percent inhibition on L. (L.) amazonensis replication) was determined as 76%. Moreover, the IC50 (as a rule, the point on the concentration scale where inhibition reaches its midpoint) (single addition at 0 h, evaluated after 48 hours, 26°C, read-out: IC50 (CI 95%) on L. (L.) amazonensis promastigotes in vitro growth) came out at 48.7 µM.
